Reference: US20240336629A1, “Tricyclic Derivatives Useful As PARP7 Inhibitors” (JACOBIO PHARMACEUTICALS CO., LTD., priority 2021, published 2024)

Assays:
[1] = test system: lung cancer cell line H1373 (high expression of PARP7); assay: Lung cancer cell proliferation inhibition experiment (CTG method); type: cell-based; details: H1373 cells, 144 hrs incubation, Cell Titer Glo
[2] = molecular target: PARP7 enzyme (Homo sapiens (Human), UniProt Q7Z3E1); assay: PARP7 enzymatic experiment (HTRF assay); type: biochemical; details: 4PL fit
Sequence of PARP7 enzyme (Q7Z3E1 456-657): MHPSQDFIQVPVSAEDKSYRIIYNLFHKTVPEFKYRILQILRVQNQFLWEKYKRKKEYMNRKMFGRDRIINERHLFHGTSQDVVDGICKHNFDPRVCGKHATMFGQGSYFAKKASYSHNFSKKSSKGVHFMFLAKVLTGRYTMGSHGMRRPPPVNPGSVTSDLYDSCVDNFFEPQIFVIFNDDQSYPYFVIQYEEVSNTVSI

| Compound | IC50 [1] [µM] | IC50 [2] [µM] | IC50 ([1]; Homo sapiens, NCI-H1373, 144 h) [µM] |
| --- | --- | --- | --- |
| C[C@H]1C[C@@H]2CN(C(=O)CCOC[C@@H]3CCN3c3cn[nH]c(=O)c3C(F)(F)F)CCN2c2ncc(C(F)(F)F)cc21 (single isomer, unassigned) [Compound 94C] | 0.00703 | 0.0021 | – |
| C[C@H]1C[C@H]2CN(C(=O)CCOC[C@@H]3CCN3c3cn[nH]c(=O)c3C(F)(F)F)CCN2c2ncc(C(F)(F)F)cc21 (single isomer, unassigned) [Compound 94D] | 0.0158 | 0.00355 | – |
| COc1ccc(Cn2ncc(N3CC(C)(C)[C@H]3COCCC(=O)N3CCN4c5ncc(C(F)(F)F)cc5N(C)C(=O)[C@@H]4C3)c(C(F)(F)F)c2=O)cc1 (single isomer, unassigned) [Compound 95A] | 0.0399 | 0.00357 | – |
| COc1ccc(Cn2ncc(N3CC(C)(C)[C@H]3COCCC(=O)N3CCN4c5ncc(C(F)(F)F)cc5N(C)C(=O)[C@H]4C3)c(C(F)(F)F)c2=O)cc1 (single isomer, unassigned) [Compound 95B] | 0.0485 | 0.00588 | – |
| CN1C(=O)[C@@H]2CN(C(=O)CCOC[C@@H]3CCCN3c3cn[nH]c(=O)c3C(F)(F)F)CCN2c2ncc(C(F)(F)F)cc21 (single isomer, unassigned) [Compound 98A] | 0.0555 | 0.00125 | – |
| CN1C(=O)[C@H]2CN(C(=O)CCOC[C@@H]3CCCN3c3cn[nH]c(=O)c3C(F)(F)F)CCN2c2ncc(C(F)(F)F)cc21 (single isomer, unassigned) [Compound 98B] | 0.0371 | 0.00136 | – |
| CC(=O)c1c(N[C@@H](C)COCCC(=O)N2CCN3c4ncc(C(F)(F)F)cc4N(C)C(=O)[C@@H]3C2)cn[nH]c1=O [Compound 13A] | – | 0.00136 | 0.0357 |
| CC(=O)c1c(N[C@@H](C)COCCC(=O)N2CCN3c4ncc(C(F)(F)F)cc4N(C)C(=O)[C@H]3C2)cn[nH]c1=O [Compound 13B] | – | 0.00173 | 0.0522 |
| CC[C@@H](COCCC(=O)N1CCN2c3ncc(C(F)(F)F)cc3N(C)C(=O)[C@@H]2C1)Nc1cn[nH]c(=O)c1C(F)(F)F [Compound 15A] | – | 0.00193 | 0.0824 |
| CC[C@@H](COCCC(=O)N1CCN2c3ncc(C(F)(F)F)cc3N(C)C(=O)[C@H]2C1)Nc1cn[nH]c(=O)c1C(F)(F)F [Compound 15B] | – | 0.00286 | 0.187 |
| C[C@@H](COCCC(=O)N1CCN2c3ncc(F)cc3N(C)C(=O)[C@H]2C1)Nc1cn[nH]c(=O)c1C(F)(F)F [Compound 19B] | – | 0.00275 | 0.221 |
| C[C@@H](COCCC(=O)N1CCN2c3ncc(Br)cc3N(C)C(=O)[C@@H]2C1)Nc1cn[nH]c(=O)c1C(F)(F)F [Compound 21A] | – | 0.000424 | 0.0809 |
| C[C@@H](COCCC(=O)N1CCN2c3ncc(Br)cc3N(C)C(=O)[C@H]2C1)Nc1cn[nH]c(=O)c1C(F)(F)F [Compound 21B] | – | 0.000812 | 0.0436 |
| CCN1C(=O)[C@@H]2CN(C(=O)CCOC[C@H](C)Nc3cn[nH]c(=O)c3C(F)(F)F)CCN2c2ncc(Cl)cc21 [Compound 22A] | – | 0.000846 | 0.139 |
| CCN1C(=O)[C@H]2CN(C(=O)CCOC[C@H](C)Nc3cn[nH]c(=O)c3C(F)(F)F)CCN2c2ncc(Cl)cc21 [Compound 22B] | – | 0.000969 | 0.0641 |
| CCN1C(=O)[C@H]2CN(C(=O)CCOC[C@H](C)Nc3cn[nH]c(=O)c3C(F)(F)F)CCN2c2ncc(Br)cc21 [Compound 23B] | – | 0.000863 | 0.0461 |
| COC[C@@H](COCCC(=O)N1CCN2c3ncc(C(F)(F)F)cc3N(C(C)C)C(=O)[C@@H]2C1)Nc1cn[nH]c(=O)c1C(F)(F)F [Compound 25A] | – | 0.00372 | 0.0381 |
| COC[C@@H](COCCC(=O)N1CCN2c3ncc(C(F)(F)F)cc3N(C(C)C)C(=O)[C@H]2C1)Nc1cn[nH]c(=O)c1C(F)(F)F [Compound 25B] | – | 0.00536 | 0.0534 |
| CC(=O)c1c(N[C@@H](C)COCCC(=O)N2CCN3c4ncc(C(F)(F)F)cc4N(C4CC4)C(=O)C3C2)cn[nH]c1=O (some centres unmarked) [Compound 27] | – | 0.00698 | 0.441 |
